Measured values from patent EP2698367A1, “Benzimidazoles for the treatment of cancer” (Max-Planck-Gesellschaft zur Förderung der Wissenschaften …, priority 2012, dated 2014).

Target: PDEδ farnesyl pocket (Homo sapiens, UniProt O43924)
Assay: Displacement titrations of labeled probe (fluorescence polarization) for the determination of KD values
Assay type: binding
Conditions: not given
Text: The resulting solution was serially diluted, holding the concentrations of S54, PDEδ and DMSO constant. The sealed plates were shaken overnight at room temperature and centrifuged at the beginning of the next day. […] For the fitting of the data to a competition model the exact mathematical solution derived from the law of mass action was used as described by Roehrl et al.^3 Fraction bound data was fit using KD2 as the only fitting parameter and total ligand concentration as independent variable (OriginPro8.6, function codec from origin). [formula] • FSB: Fraction bound of fluorescent probe • KD1: Binding constant of fluorescent Probe determined from direct titration • KD2: Fitting parameter (Binding constant of unlabeld competitor) • LST: Total concentration of unlabeld small molecule competitor • RT: Total protein concentration
For the fitting of data to a competition model with cooperative binding of two benzimidazole fragments the program Scientist 3.0 was used. An experimental system was defined as a series of partial equations including the equilibrium relationships between the various species. Anisotropy data was converted to fraction bound and fitting was carried out in anlogy to a previously described set of equilibrium relationships by Goody and coworkers.^4. KD1 = ([A][PDEDf])/([APDED]) [formula] KD2 = ([L^2][PDEDf])/([LPDED]) [formula] • A:equilibrium conentration of free fluorophore • L: equilibrium concentration of free ligand • APDED: equilibrium concentration of bound fluorescent probe • LPDED: equilibrium conentration of bound small molecule • PDEDf: equilibrium conentration of free protein This model was used (together with equations describing the mass balance) to numerically simulate the FSB of fluorophore and compared with the experimental data.
Scientist input file: • // Micromath Scientist Model File • IndVars: LST • DepVars: A,L,APDED,LPDED,PDEDf,FSB • Params: ATOT,PDED,KD1,KD2 • LPDED= L^2*PDEDf/KD2 • APDED=A*PDEDf/KD1 • ATOT=A+APDED • LST=L+LPDED • PDED=PDEDf+APDED+LPDED • 0<A<ATOT • 0<L<LST • 0<PDEDf<PDED • FSB=1-A/ATOT • LST=0
The activity of the compounds was classified according to their Kd for the PDEδ farnesyl pocket into the following ranges: […]

Chain of PDEδ farnesyl pocket (O43924 whole entry): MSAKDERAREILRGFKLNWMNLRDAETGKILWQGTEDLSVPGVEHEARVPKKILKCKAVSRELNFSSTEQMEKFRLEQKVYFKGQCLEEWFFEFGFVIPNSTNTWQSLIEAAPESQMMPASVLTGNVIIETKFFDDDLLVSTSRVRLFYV

Row | SMILES | Kd
1 | Oc1ccc(Cn2c(-c3ccc(O)cc3)nc3ccccc32)cc1 [Compound 15] | 25 to 100 nM
2 | COc1ccc(Cc2nc3ccccc3n2Cc2ccccc2)cc1 [Compound 27] | 100 to 1000 nM
3 | CC(C)CCn1c(CC(C)(C)C)nc2ccccc21 [Compound 35] | 100 to 1000 nM
4 | c1ccc(Cn2c(CN3CCCCCC3)nc3ccccc32)cc1 [Compound 40] | 100 to 1000 nM

Same assay, conditions: Kd for the PDEδ farnesyl pocket; read-out: KD

Row | Kd | SMILES
5 | > 1000 nM | c1ccc(C2Nc3ccccc3-c3nc4ccccc4n32)nc1 (stereo not drawn) [Compound 02, 6-Pyiridyl-5,6-dihydrobenzo[4-5]imidazo[1,2-c]quinazoline]
6 | 100 to 1000 nM | c1ccc(Cn2c(-c3ccc(OCCn4c(-c5ccccc5)nc5ccccc54)cc3)nc3ccccc32)cc1 [Compound 06, 1-Benzyl-2-(4-(2-(2-phenyl-1H-benzo[d]imidazol-1-yl)ethoxy)phenyl)-1H-benzo[d]imidazole]
7 | > 1000 nM | CC(C)(C)OC(=O)N1CCC(C(COc2ccc(-c3nc4ccccc4n3Cc3ccccc3)cc2)n2c(-c3ccccc3)nc3ccccc32)CC1 (stereo not drawn) [Compound 08, tert-Butyl-4-(2-(4-(1-benzyl-1H-benzo[d]imidazol-2-yl)phenoxy)-1-(2-phenyl-1H-benzo[d]imidazol-1-yl)ethyl)piperidine-1-carboxylate]
8 | 100 to 1000 nM | COc1ccccc1OCc1nc2ccccc2n1Cc1ccccc1Cl [Compound 13]
9 | 100 to 1000 nM | C=C(C)Cn1c(-c2ccc(N(C)C)cc2)nc2ccccc21 [Compound 14]
10 | 100 to 1000 nM | Cc1ccc(OCc2nc3ccccc3n2C(C)c2ccccc2)cc1 (stereo not drawn) [Compound 16]
11 | 100 to 1000 nM | O=C(NCCN1CCCC1)C1CCN(c2nc3ccccc3n2Cc2ccccc2F)CC1 [Compound 17]
12 | 100 to 1000 nM | COc1cccc(CNC(=O)C2CCN(c3nc4ccccc4n3Cc3ccccc3C)CC2)c1 [Compound 19]
13 | 25 to 100 nM | CCOc1ccc(CNC(=O)C2CCN(c3nc4ccccc4n3Cc3ccc(F)cc3)CC2)cc1 [Compound 20]
14 | 100 to 1000 nM | CN(CCCNC(=O)C1CCN(c2nc3ccccc3n2Cc2ccc(F)cc2)CC1)C1CCCCC1 [Compound 21]
15 | > 1000 nM | Cc1ccccc1Cn1c(N2CCC(C(=O)O)CC2)nc2ccccc21 [Compound 22]
16 | > 1000 nM | CC1CCCN(C(=O)C2CCN(c3nc4ccccc4n3Cc3cccc(F)c3)CC2)C1 (stereo not drawn) [Compound 23]
17 | > 1000 nM | CCN(CCCNC(=O)C1CCN(c2nc3ccccc3n2Cc2ccc(C)cc2)CC1)c1cccc(C)c1 [Compound 24]
18 | 100 to 1000 nM | Cc1ccccc1Cn1c(N2CCC(C(=O)NCCCN3CC(C)CC(C)C3)CC2)nc2ccccc21 (stereo not drawn) [Compound 25]
19 | 100 to 1000 nM | c1ccc(CCn2c(-c3ccco3)nc3ccccc32)cc1 [Compound 26]
20 | > 1000 nM | Cc1ccccc1Cn1c(Cc2ccccc2)nc2ccccc21 [Compound 28]
21 | 100 to 1000 nM | CCCCc1nc2ccccc2n1Cc1ccc(Cl)cc1 [Compound 29]
22 | > 1000 nM | CCC(CC)c1nc2ccccc2n1Cc1ccccc1 [Compound 30]
23 | 100 to 1000 nM | C=C(C)Cn1c(CC(C)C)nc2ccccc21 [Compound 31]
24 | 100 to 1000 nM | CC(C)Cc1nc2ccccc2n1Cc1ccccc1 [Compound 32]
25 | 100 to 1000 nM | CCc1nc2ccccc2n1Cc1ccccc1F [Compound 33]
26 | 25 to 100 nM | Cc1ccccc1Cn1c(CC(C)(C)C)nc2ccccc21 [Compound 34]
27 | > 1000 nM | Cc1cccc(-c2nc3ccccc3n2CCc2ccccc2)c1 [Compound 36]

Row | Kd | SMILES
28 | 25 to 100 nM | CC(C)Cc1nc2ccccc2n1Cc1c(F)cccc1Cl [Compound 37]
29 | > 1000 nM | C#CCn1c(-c2ccccc2Br)nc2ccccc21 [Compound 38]
30 | 100 to 1000 nM | Clc1cccc(Cn2c(-c3ccco3)nc3ccccc32)c1 [Compound 39]
31 | 100 to 1000 nM | CCCC(O)c1nc2ccccc2n1Cc1c(F)cccc1Cl (stereo not drawn) [Compound 41]
32 | 100 to 1000 nM | Cc1ccc(-c2nc3ccccc3n2Cc2ccc(F)cc2)o1 [Compound 42]
33 | > 1000 nM | Fc1ccc(Cn2c(-c3cccc(Br)c3)nc3ccccc32)cc1 [Compound 43]
34 | 100 to 1000 nM | Cc1ccc(NC(=O)N2CCN(c3nc4ccccc4n3Cc3ccccc3)CC2)c(C)c1 [Compound 44]
35 | 100 to 1000 nM | COc1cc(OC)cc(C(=O)N2CCN(c3nc4ccccc4n3Cc3ccccc3)CC2)c1 [Compound 45]
36 | 100 to 1000 nM | O=C(c1ccccc1Cl)N1CCN(c2nc3ccccc3n2Cc2ccccc2)CC1 [Compound 46]
37 | > 1000 nM | Cc1ccc(C)c(Cn2c(CCNC(=O)CCCC(C)O)nc3ccccc32)c1 (stereo not drawn) [Compound 47]
38 | 25 to 100 nM | Ic1ccc(Cn2c(-c3ccc(I)o3)nc3ccccc32)o1 [Compound 48]
39 | > 1000 nM | COc1cccc(C(=O)C=Cc2nc3ccccc3n2Cc2ccccc2)c1 [Compound 49]
40 | 100 to 1000 nM | COc1ccc(-c2nc3ccccc3n2Cc2c(F)cccc2Cl)cc1 [Compound 50]
41 | > 1000 nM | O=C(NCCO)C(c1ccccc1)n1c(-c2ccccc2)nc2ccccc21 (stereo not drawn) [Compound 51]
42 | > 1000 nM | C=CCOc1ccc(-c2nc3ccccc3n2Cc2ccccc2)cc1 [Compound S02, 2-(4-(Allyloxy)phenyl)-1-benzyl-1H-benzo[d]imidazole]
43 | > 1000 nM | C=CCOc1ccc(-c2nc3ccccc3n2Cc2ccccn2)cc1 [Compound S03, 2-(4-(Allyloxy)phenyl)-1-(pyridin-2-ylmethyl)-1H-benzo[d]imidazole]
44 | > 1000 nM | C=CCOc1ccc(-c2nc3ccccc3n2Cc2ccccc2C)cc1 [Compound S04, 2-(4-(Allyloxy)phenyl)-1-(2-methylbenzyl)-1H-benzo[d]imidazole]
45 | 100 to 1000 nM | C=CCOc1ccc(-c2nc3ccccc3n2Cc2ccc(F)cc2)cc1 [Compound S06, 2-(4-(Allyloxy)phenyl)-1-(4-fluorobenzyl)-1H-benzo[d]imidazole]
46 | 25 to 100 nM | Oc1ccc(-c2nc3ccccc3n2Cc2ccccc2)cc1 [Compound S07, 4-(1-Benzyl-1H-benzo[d]imidazol-2-yl)phenol]
47 | > 1000 nM | Oc1ccc(-c2nc3ccccc3n2Cc2ccccn2)cc1 [Compound S08, 4-(1-(Pyridin-2-ylmethyl)-1H-benzo[d]imidazol-2-yl)phenol]
48 | 100 to 1000 nM | Oc1ccc(-c2nc3ccccc3n2Cc2ccc(F)cc2)cc1 [Compound S09, 4-(1-(4-Fluorobenzyl)-1H-benzo[d]imidazol-2-yl)phenol]
49 | 100 to 1000 nM | O=C(NCc1ccccc1)C(C1CCCCC1)n1c(-c2ccccc2)nc2ccccc21 (stereo not drawn) [Compound S12, N-Benzyl-2-cyclohexyl-2-(2-phenyl-1H-benzo[d]imidazol-1-yl)acetamide]
50 | > 1000 nM | OCC(C1CCCCC1)n1c(-c2ccccc2)nc2ccccc21 (stereo not drawn) [Compound S16, 2-Cyclohexyl-2-(2-phenyl-1H-benzo[d]imidazol-1-yl)ethanol]

Same assay, conditions: read-out: KD

Row | Kd | SMILES
51 | 100 to 1000 nM | O=C(NCCCN1CCN(c2ccc(O)cc2)CC1)C1CCN(c2nc3ccccc3n2Cc2cccc(F)c2)CC1 [Compound 18]

System: Erk
Assay: Western blot of ERK signaling (Erk phosphorylation) in PANC-TUI cells
Assay type: cell-based, human
Conditions: 5 µM, EGF, measured by phosphorylation

Row | SMILES | activation of Erk
52 | c1ccc(Cn2c(-c3ccc(OC[C@H](C4CCNCC4)n4c(-c5ccccc5)nc5ccccc54)cc3)nc3ccccc32)cc1 [(S)-9, (S)-1-Benzyl-2-(4-(2-(2-phenyl-1H-benzo[d]imidazol-1-yl)-2-(piperidin-4-yl)ethoxy)phenyl)-1H-benzo[d]imidazole] | attenuated activation of Erk

Target: interaction of Rheb with PDEδ (Homo sapiens, UniProt O43924)
Assay: not given
Conditions: 5 µM, live MDCK cells, measured by FLIM

Chain of interaction of Rheb with PDEδ (O43924 whole entry): as above

Row | SMILES | interaction between mCitrine-Rheb and mCherry-PDEδ
53 | c1ccc(Cn2c(-c3ccc(OC[C@H](C4CCNCC4)n4c(-c5ccccc5)nc5ccccc54)cc3)nc3ccccc32)cc1 [(S)-9, (S)-1-Benzyl-2-(4-(2-(2-phenyl-1H-benzo[d]imidazol-1-yl)-2-(piperidin-4-yl)ethoxy)phenyl)-1H-benzo[d]imidazole] | more rapidly (within one minute) and more strongly reduced

System: CAPAN-1 cells
Assay: Real time cell analysis (RTCA) of CAPAN-1 cells
Assay type: cell-based
Conditions: 5µM, K-Ras dependent pancreatic tumor cell

Row | SMILES | Proliferation of CAPAN-1 cells
54 | c1ccc(Cn2c(-c3ccc(OC[C@H](C4CCNCC4)n4c(-c5ccccc5)nc5ccccc54)cc3)nc3ccccc32)cc1 [(S)-9, (S)-1-Benzyl-2-(4-(2-(2-phenyl-1H-benzo[d]imidazol-1-yl)-2-(piperidin-4-yl)ethoxy)phenyl)-1H-benzo[d]imidazole] | inhibited strongly

System: mCherry-K-Ras in Panc1 cells
Assay: Time series of mCherry-K-Ras redistribution in Panc1 cells
Assay type: cell-based, human
Conditions: 5µM

Row | SMILES | mCherry-K-Ras redistribution
55 | c1ccc(Cn2c(-c3ccc(OC[C@H](C4CCNCC4)n4c(-c5ccccc5)nc5ccccc54)cc3)nc3ccccc32)cc1 [(S)-9, (S)-1-Benzyl-2-(4-(2-(2-phenyl-1H-benzo[d]imidazol-1-yl)-2-(piperidin-4-yl)ethoxy)phenyl)-1H-benzo[d]imidazole] | loss of K-Ras spatial organization

System: mCherry-K-Ras in PancTul cells
Assay: Time series of mCherry-K-Ras redistribution in PancTul cells
Assay type: cell-based, human
Conditions: 5µM

Row | SMILES | mCherry-K-Ras redistribution
56 | c1ccc(Cn2c(-c3ccc(OC[C@H](C4CCNCC4)n4c(-c5ccccc5)nc5ccccc54)cc3)nc3ccccc32)cc1 [(S)-9, (S)-1-Benzyl-2-(4-(2-(2-phenyl-1H-benzo[d]imidazol-1-yl)-2-(piperidin-4-yl)ethoxy)phenyl)-1H-benzo[d]imidazole] | loss of K-Ras spatial organization

System: PANC-TUI cells
Assay: Real time cell analysis (RTCA) of PANC-TUI cell proliferation
Assay type: cell-based, human
Conditions: 5µM, K-Ras dependent pancreatic tumor cell
Protocol: To address whether the novel compounds that target the farnesyl binding pocket in PDEδ inhibit the interaction between PDEδ and Ras family proteins in live cells, fluorescence lifetime imaging microscopy (FLIM)-based quantitative fluorescence resonance energy transfer (FRET) measurements were carried out. […] Figure 4: Real time cell analysis (RTCA) of PANC-TUI cell proliferation. PANC-TUI is a K-Ras dependent pancreatic tumor cell.

Row | SMILES | PANC-TUI cell proliferation
57 | c1ccc(Cn2c(-c3ccc(OC[C@H](C4CCNCC4)n4c(-c5ccccc5)nc5ccccc54)cc3)nc3ccccc32)cc1 [(S)-9, (S)-1-Benzyl-2-(4-(2-(2-phenyl-1H-benzo[d]imidazol-1-yl)-2-(piperidin-4-yl)ethoxy)phenyl)-1H-benzo[d]imidazole] | stopped proliferating and underwent cell death within a few hours
